From publication PMC6222329 (Molecules : A Journal of Synthetic Chemistry and Natural …, 2018)

Legend:
Assay type in all cases: biochemical
[1] = target: T1, BChE (Equine) (Equus caballus, UniProt P81908); assay: biochemical
T1 construct: purchased Sigma-Aldrich (Steinheim, Germany)
Protocol: (§1) The assay was performed in two steps.
(§2) All enzymes were obtained from Sigma-Aldrich (Steinheim, Germany). Ellman’s reagent and the substrates were obtained from Fluka (Buchs, Switzerland). The chemicals used to prepare the buffer solution were purchased from Merck (Darmstadt, Germany).
(§3) The enzyme inhibitory activities of the synthesized compounds were investigated by applying Ellman’s method. Enzyme solutions were dissolved in gelatin solution (1%; 2.5 units/mL). […] Then, the reaction was initiated by the addition of Ellman’s reagent 5,5′-Dithiobis(2-nitrobenzoic acid) (DTNB; 20 µL/well, 10 mM) and the substrate (10 µL/well, 75 mM). […] The enzyme solution was processed as a control. All readings were adjusted with blank-reading. All assays were performed in four independent wells. […] Absorbance differences between the two readings were taken, and percentage inhibition rates were calculated according to the following formula: % Inhibition=[(A(C)−A(B))−(A(I)−A(B))]/(A(C)−A(B))×100.
(§4) • Blank (B): the well in which the inhibitor compound and substrate were not added; • Control (C): the well where the inhibitor compound was not added; • A(B): the difference in absorbance reading for the blank; • A(C): the difference in absorbance reading for the control; • A(I): the difference in absorbance reading for the inhibitor compounds.

[2] = target: T2, AChE (Electrophorus electricus) (Electrophorus electricus, UniProt O42275); assay: AChE inhibition, Ellman's method
T2 construct: purchased Sigma-Aldrich (Steinheim, Germany)
Protocol: as §1, §2, §3, §4

[3] = target: T3, AChE (Human) (Homo sapiens, UniProt P22303); assay: AChE inhibition, Ellman's method
T3 construct: purchased Sigma-Aldrich (Steinheim, Germany)
Protocol: as §1, §2, §3, §4

[4] = target: T4, BChE (Human) (Homo sapiens, UniProt P06276); assay: BChE inhibition, Ellman's method
T4 construct: purchased Sigma-Aldrich (Steinheim, Germany)
Protocol: as §1, §2, §3, §4

[5] = read-out: BChE (Equine) inhibitory activity (%) ± SD

T3 sequence (P22303 32-614): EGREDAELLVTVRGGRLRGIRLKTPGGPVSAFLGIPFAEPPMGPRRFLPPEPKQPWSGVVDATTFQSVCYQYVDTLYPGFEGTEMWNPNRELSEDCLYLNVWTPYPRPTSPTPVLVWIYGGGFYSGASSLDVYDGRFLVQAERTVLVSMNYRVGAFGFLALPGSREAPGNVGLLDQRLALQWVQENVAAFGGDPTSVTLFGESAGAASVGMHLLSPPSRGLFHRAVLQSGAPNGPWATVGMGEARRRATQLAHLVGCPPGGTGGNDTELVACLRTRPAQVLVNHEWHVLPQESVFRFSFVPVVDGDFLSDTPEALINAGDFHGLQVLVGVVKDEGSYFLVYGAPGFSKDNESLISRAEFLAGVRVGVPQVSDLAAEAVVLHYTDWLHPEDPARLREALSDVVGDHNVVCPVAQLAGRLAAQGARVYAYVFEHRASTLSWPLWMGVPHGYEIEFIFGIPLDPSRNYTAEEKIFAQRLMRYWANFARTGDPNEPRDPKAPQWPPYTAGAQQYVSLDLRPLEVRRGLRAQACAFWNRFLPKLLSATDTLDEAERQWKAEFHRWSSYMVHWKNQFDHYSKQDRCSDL
T2 sequence (O42275 24-633): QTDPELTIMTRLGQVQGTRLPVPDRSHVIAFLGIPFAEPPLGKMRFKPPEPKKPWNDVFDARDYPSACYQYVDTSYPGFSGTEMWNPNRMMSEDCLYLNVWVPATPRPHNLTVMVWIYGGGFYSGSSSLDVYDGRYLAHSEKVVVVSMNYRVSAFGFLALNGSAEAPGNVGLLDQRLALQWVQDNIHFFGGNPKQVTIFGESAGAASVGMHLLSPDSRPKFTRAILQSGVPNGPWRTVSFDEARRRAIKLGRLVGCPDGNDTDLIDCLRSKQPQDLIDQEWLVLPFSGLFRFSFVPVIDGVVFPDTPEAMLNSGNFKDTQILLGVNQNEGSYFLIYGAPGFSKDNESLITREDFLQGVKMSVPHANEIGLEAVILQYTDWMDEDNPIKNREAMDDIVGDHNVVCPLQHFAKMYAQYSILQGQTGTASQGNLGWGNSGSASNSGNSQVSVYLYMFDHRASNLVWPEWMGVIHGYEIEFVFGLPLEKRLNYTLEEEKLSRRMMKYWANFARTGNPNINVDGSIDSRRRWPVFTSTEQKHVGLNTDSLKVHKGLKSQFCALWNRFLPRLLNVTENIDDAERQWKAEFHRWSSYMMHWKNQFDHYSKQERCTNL
T1 sequence (P81908 whole entry): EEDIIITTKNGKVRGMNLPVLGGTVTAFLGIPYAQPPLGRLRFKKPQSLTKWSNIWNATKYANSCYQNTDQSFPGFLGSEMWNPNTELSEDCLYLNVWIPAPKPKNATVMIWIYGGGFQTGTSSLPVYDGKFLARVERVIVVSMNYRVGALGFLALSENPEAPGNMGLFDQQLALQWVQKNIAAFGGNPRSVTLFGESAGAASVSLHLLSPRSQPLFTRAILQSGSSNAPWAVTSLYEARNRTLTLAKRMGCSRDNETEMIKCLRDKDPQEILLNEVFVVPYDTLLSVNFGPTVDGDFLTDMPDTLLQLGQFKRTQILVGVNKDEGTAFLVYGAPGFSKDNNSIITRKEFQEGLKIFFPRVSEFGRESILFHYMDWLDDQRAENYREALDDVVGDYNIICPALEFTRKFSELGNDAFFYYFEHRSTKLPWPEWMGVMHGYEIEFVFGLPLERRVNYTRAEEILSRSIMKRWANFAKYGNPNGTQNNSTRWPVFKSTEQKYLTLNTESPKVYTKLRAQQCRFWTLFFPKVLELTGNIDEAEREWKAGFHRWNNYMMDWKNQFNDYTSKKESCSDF
T4 sequence (P06276 29-602): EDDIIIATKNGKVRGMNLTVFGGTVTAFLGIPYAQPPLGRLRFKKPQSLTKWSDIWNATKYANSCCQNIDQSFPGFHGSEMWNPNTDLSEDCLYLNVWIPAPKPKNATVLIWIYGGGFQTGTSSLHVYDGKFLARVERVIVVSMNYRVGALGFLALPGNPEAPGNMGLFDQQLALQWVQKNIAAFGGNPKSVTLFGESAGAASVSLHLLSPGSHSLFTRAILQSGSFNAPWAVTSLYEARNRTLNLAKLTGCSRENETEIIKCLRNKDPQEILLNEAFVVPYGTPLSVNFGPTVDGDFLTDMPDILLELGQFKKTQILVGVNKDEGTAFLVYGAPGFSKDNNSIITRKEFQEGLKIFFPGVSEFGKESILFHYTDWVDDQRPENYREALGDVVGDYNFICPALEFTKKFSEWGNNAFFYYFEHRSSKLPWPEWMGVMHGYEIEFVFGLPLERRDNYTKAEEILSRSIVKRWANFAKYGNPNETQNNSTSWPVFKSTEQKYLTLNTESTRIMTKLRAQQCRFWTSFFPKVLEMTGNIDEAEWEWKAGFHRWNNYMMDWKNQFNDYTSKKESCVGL

Structure (SMILES) | BChE (Equine) inhibitory activity (%) ± SD ([1]; 10^-3 M) [%] | BChE (Equine) inhibitory activity (%) ± SD ([1]; 10^-4 M) [%] | AChE (Electrophorus electricus) inhibitory activity (%) ± SD ([2]; 10^-3 M) [%] | AChE (Electrophorus electricus) inhibitory activity (%) ± SD ([2]; 10^-4 M) [%] | AChE (Human) inhibitory activity (%) ± SD ([3]; 10^-3 M) [%] | AChE (Human) inhibitory activity (%) ± SD ([3]; 10^-4 M) [%] | BChE (Human) inhibitory activity (%) ± SD ([4]; 10^-3 M) [%] | BChE (Human) inhibitory activity (%) ± SD ([4]; 10^-4 M) [%] | inhibition at 0.001 µM [1, 5] [%] | inhibition at 0.01 µM [1, 5] [%] | inhibition at 0.1 µM [1, 5] [%] | inhibition at 1 µM [1, 5] [%] | inhibition at 10 µM [1, 5] [%] | inhibition at 100 µM [1, 5] [%] | inhibition at 1000 µM [1, 5] [%] | inhibition at 1000 µM ([4]; 10^-3 M, read-out: BChE (Human) inhibitory activity (%) ± SD) [%] | inhibition at 100 µM ([4]; 10^-4 M, read-out: BChE (Human) inhibitory activity (%) ± SD) [%] | inhibition at 10 µM ([4]; 10^-5 M, read-out: BChE (Human) inhibitory activity (%) ± SD) [%] | inhibition at 1 µM ([4]; 10^-6 M, read-out: BChE (Human) inhibitory activity (%) ± SD) [%] | inhibition at 0.1 µM ([4]; 10^-7 M, read-out: BChE (Human) inhibitory activity (%) ± SD) [%]
COc1ccc(N2CCN(C(=S)SCC(=O)Nc3c4ccccc4nc4ccccc34)CC2)cc1 [Compound 4h, 2-(9-Acridinylamino)-2-oxoethyl 4-(4-methoxyphenyl)piperazine-1-carbodithioate] | 84.02±2.35 | 12.64 ± 0.46 | 30.87±1.01 | 15.23 ± 0.69 | 35.77±1.62 | 18.39 ± 0.57 | 80.88±2.05 | 15.58 ± 0.67 |  |  |  |  |  |  |  |  |  |  |  | 
O=C(CSC(=S)N1CCN(c2ncccn2)CC1)Nc1c2ccccc2nc2ccccc12 [Compound 4j, 2-(9-Acridinylamino)-2-oxoethyl 4-(pyrimidin-2-yl)piperazine-1-carbodithioate] | 92.87±2.84 | 27.86 ± 1.07 | 69.08±1.67 | 2.88 ± 0.18 | 66.71±1.06 | 5.97 ± 0.22 | 90.51±2.18 | 30.77 ± 1.20 |  |  |  |  |  |  |  |  |  |  |  | 
O=C(CSC(=S)N1CCN(Cc2ccccc2)CC1)Nc1c2ccccc2nc2ccccc12 [Compound 4k, 2-(9-Acridinylamino)-2-oxoethyl 4-benzylpiperazine-1-carbodithioate] | 74.62±2.75 | 25.14 ± 1.42 | 58.74±1.69 | 8.62 ± 0.22 | 59.17±1.11 | 7.21 ± 0.18 | 70.98±2.39 | 20.65 ± 1.20 |  |  |  |  |  |  |  |  |  |  |  | 
O=C(CSC(=S)N1CCN(C2CCCCC2)CC1)Nc1c2ccccc2nc2ccccc12 [Compound 4l, 2-(9-Acridin-ylamino)-2-oxoethyl 4-cyclohexylpiperazine-1-carbodithioate] | 84.88±3.34 | 45.88 ± 1.62 | 56.11±2.46 | 3.90 ± 0.09 | 58.33±1.39 | 7.29 ± 0.18 | 85.71±2.40 | 42.60 ± 1.53 |  |  |  |  |  |  |  |  |  |  |  | 
COc1cc2c(cc1OC)C(=O)C(CC1CCN(Cc3ccccc3)CC1)C2 (centres unmarked) [Donepezil, reference compound] |  |  |  |  |  |  |  |  | 9.23 ± 0.08 | 15.3 ± 0.61 | 38.1 ± 0.89 | 54.3 ± 1.16 | 59.2 ± 1.54 | 71.7 ± 2.16 | 82.2 ± 2.91 | 85.2 ± 2.01 | 76.5 ± 2.08 | 60.2 ± 1.37 | 52.5 ± 1.05 | 32.7 ± 0.95
